Assay results as given in ChEMBL document CHEMBL1201862, “PubChem BioAssay data set” (2004).
Activity calls are given as the source filed them.

Tests used:
Beta-lactamase [1] = molecular target: Beta-lactamase (Salmonella choleraesuis (strain SC-B67), UniProt Q5J463)
Beta-lactamase [2] = molecular target: Beta-lactamase (Pseudomonas aeruginosa, UniProt Q79MP6);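 note: biochemical dose-response test of metallo-beta-lactamase enzyme inhibition, read out by epi-absorbance; purified recombinant IMP-1 metallo-beta-lactamase with nitrocefin as substrate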
[3] = molecular target: Mitogen-activated protein kinase 10 (Homo sapiens, UniProt P53779); assay: Dose response biochemical screening assay for inhibitors of c-Jun N-Terminal Kinase 3 (JNK3). [Related pubchem assays: 746 ]
Sequence of Mitogen-activated protein kinase 10 (P53779 whole entry): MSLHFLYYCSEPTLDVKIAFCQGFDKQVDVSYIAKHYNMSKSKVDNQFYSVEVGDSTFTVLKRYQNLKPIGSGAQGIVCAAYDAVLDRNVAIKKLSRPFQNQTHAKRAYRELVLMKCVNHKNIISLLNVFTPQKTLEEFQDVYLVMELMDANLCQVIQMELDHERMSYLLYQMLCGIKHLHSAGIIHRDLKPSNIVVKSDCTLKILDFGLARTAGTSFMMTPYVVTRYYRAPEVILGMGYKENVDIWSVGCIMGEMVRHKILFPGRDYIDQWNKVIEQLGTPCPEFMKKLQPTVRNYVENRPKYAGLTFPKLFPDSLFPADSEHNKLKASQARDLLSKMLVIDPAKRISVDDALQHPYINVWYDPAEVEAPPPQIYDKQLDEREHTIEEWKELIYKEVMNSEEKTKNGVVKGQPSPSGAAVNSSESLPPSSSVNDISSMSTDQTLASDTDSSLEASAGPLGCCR

[4] = molecular target: T1, Voltage-gated N-type calcium channel alpha-1B subunit/Amyloid beta A4 precursor protein-binding family A member 1 (Homo sapiens, UniProt Q00975+Q02410); assay type: protein assay
T1 sequence (Q00975 whole entry): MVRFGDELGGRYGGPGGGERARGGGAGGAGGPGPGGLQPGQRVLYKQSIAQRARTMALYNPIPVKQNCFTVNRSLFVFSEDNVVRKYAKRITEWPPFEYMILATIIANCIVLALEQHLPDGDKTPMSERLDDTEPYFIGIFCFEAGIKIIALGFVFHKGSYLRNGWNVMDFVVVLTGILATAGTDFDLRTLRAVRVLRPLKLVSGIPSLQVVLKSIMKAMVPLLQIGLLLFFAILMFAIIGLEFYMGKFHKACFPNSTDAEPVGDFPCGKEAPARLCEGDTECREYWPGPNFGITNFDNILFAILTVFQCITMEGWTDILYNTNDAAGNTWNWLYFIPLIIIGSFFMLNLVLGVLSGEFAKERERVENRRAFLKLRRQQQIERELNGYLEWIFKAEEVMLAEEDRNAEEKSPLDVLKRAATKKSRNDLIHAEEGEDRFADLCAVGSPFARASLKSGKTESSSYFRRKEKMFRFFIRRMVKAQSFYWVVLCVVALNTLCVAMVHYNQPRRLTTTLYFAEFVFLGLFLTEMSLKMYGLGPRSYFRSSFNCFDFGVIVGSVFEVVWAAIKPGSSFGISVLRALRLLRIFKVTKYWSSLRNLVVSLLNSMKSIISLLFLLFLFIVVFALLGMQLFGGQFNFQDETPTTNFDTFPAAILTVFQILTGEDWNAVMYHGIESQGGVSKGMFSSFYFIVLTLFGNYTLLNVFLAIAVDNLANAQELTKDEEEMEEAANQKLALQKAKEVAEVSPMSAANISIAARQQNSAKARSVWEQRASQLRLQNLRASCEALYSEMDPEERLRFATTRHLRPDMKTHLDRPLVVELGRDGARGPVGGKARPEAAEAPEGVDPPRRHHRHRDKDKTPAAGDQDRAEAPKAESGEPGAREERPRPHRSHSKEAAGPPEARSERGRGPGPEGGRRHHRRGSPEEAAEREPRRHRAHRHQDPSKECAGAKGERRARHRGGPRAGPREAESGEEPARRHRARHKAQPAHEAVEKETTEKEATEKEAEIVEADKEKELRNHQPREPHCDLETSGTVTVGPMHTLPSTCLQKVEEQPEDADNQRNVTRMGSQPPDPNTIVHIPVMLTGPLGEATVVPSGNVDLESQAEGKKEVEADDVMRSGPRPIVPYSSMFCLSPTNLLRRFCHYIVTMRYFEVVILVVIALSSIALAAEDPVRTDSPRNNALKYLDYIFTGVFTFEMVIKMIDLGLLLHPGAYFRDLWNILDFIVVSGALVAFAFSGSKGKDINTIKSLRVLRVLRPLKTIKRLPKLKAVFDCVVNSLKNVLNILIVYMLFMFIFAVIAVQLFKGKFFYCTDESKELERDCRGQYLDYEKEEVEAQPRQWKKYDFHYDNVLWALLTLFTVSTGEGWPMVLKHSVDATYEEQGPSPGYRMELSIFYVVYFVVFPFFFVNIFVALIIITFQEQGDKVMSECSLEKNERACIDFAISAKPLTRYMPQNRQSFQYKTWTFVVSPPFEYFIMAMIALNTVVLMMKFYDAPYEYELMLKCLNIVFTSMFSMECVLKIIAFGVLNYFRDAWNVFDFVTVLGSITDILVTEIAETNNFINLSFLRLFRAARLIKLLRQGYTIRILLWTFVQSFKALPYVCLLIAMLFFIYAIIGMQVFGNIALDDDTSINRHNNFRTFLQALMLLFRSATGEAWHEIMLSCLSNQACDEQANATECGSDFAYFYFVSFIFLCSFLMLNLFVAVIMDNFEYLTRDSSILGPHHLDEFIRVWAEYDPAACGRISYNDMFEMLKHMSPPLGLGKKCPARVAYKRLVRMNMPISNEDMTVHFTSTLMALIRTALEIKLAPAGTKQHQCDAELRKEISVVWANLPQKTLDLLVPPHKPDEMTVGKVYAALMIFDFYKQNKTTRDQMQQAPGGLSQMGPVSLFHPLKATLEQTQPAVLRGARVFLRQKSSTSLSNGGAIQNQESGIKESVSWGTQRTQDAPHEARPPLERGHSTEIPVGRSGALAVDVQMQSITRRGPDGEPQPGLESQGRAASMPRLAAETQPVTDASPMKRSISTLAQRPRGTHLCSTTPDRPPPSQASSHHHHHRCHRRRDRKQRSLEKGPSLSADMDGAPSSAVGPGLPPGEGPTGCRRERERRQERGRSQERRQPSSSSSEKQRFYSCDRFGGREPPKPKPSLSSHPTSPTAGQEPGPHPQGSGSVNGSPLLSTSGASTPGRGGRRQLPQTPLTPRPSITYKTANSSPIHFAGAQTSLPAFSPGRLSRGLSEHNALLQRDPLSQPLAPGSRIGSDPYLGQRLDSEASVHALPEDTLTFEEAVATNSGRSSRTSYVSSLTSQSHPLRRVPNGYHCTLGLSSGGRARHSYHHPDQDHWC
T1 sequence (Q02410 whole entry): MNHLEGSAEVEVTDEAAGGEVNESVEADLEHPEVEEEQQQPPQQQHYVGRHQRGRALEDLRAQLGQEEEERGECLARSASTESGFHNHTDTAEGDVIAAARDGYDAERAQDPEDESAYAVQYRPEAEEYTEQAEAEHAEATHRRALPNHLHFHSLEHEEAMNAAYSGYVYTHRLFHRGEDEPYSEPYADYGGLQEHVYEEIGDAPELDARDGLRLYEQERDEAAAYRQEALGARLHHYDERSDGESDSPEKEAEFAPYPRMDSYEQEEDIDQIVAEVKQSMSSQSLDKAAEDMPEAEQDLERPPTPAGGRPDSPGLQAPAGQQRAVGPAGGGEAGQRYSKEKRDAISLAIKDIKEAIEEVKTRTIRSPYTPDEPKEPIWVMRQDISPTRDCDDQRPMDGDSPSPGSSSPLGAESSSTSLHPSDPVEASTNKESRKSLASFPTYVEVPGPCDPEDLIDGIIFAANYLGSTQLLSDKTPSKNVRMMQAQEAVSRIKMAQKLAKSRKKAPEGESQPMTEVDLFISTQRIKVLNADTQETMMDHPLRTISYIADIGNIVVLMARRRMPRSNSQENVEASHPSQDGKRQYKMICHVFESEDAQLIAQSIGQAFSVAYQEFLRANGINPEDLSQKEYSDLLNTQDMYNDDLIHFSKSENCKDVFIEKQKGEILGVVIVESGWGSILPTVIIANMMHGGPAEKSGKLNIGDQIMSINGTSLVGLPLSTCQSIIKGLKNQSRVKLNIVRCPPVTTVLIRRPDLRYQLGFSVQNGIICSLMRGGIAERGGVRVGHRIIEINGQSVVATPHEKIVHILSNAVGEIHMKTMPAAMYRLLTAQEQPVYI

Bcl-2-related protein A1 [5] = molecular target: T2, Bcl-2-related protein A1 (Mus musculus, UniProt Q07440); assay: small-molecule antagonists of Bfl-1/BH3 interaction – biochemical, TR-FRET, mouse Bfl-1, confirmation (AID 621);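 note: TR-FRET binding of GST-Bfl-1 to FITC-labelled Bid peptide via terbium antibody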
T2 sequence (Q07440 whole entry): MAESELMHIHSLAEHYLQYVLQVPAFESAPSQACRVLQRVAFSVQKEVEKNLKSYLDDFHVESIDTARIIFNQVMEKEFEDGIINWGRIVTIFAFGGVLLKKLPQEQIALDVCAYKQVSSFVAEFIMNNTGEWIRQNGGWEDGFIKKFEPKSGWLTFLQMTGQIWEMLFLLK

Bcl-2-related protein A1 [6] = molecular target: T2, Bcl-2-related protein A1; assay: displacement of Bid BH3 peptide from Bfl-1 – biochemical, fluorescence polarization, FITC-Bid, mouse, primary screen (AID 432)
[7] = molecular target: T1, Voltage-gated N-type calcium channel alpha-1B subunit/Amyloid beta A4 precursor protein-binding family A member 1; assay type: protein assay; remark: listed apart in the source
[8] = molecular target: Dual specificity protein phosphatase 6 (Rattus norvegicus, UniProt Q64346); assay: inhibition of rat DUSP6 enzyme activity – biochemical, in vitro, primary screen (AID 425)
[9] = NIH-3T3 fibroblast cytotoxicity, dose response, cytotoxicity control, cell-based, fluorescence, Alamar Blue, secondary assay (AID 2327); assay type: functional;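 note: NIH-3T3 mouse fibroblasts cultured with fluconazole at 8 µg/mL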
[10] = molecular target: ATP-dependent molecular chaperone HSP82 (Candida albicans (strain WO-1) (Yeast), UniProt C4YTQ8); assay: steroid-induced GRE reporter decrease in yeast – S. cerevisiae, luminescence, Hsp90 inhibitor project, dose response (AID 2400); assay type: functional, cell-based;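 note: beta-galactosidase luminescence from glucocorticoid response element reporter as proxy for Hsp90 function; inhibitor potency where signal loss means Hsp90 inhibition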
Sequence of ATP-dependent molecular chaperone HSP82 (C4YTQ8 whole entry): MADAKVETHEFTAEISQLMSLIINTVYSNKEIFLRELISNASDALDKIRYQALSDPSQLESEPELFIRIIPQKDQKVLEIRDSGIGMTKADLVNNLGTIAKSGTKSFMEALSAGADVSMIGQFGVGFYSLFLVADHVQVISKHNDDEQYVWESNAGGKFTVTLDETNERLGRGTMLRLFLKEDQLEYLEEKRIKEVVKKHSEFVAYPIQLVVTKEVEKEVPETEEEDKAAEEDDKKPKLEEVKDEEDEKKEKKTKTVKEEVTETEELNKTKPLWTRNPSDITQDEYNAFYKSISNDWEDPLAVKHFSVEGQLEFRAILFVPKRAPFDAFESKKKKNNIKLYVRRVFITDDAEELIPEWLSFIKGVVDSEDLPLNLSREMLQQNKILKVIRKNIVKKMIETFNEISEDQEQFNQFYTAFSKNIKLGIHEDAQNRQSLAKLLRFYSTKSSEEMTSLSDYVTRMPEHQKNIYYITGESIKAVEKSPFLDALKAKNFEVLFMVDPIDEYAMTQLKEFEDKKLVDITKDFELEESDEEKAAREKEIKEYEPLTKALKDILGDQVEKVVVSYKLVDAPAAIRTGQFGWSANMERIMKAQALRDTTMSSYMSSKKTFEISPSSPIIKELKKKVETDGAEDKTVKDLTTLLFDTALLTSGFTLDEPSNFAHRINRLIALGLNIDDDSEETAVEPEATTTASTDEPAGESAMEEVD

INS1 = assay: INS-1E survival protection against cytokine death – cell-based, luminescence, retest, dose response (AID 449756); assay type: functional; conditions: Rattus norvegicus;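 note: cell death triggered by IL-1 beta plus TNF-alpha plus IFN-gamma mixture; protective hits raise ATP signal compared with cytokine alone wells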
[11] = fluconazole-exposed Candida albicans growth modulators – fluorescence, retest, confirmation (AID 2467); assay type: functional, cell-based
Galanin receptor type 2 = Galanin receptor type 2 (Homo sapiens, UniProt O43603); assay: Dose Response cell-based high-throughput screening assay to identify antagonists of galanin receptor 2 (GALR2). [Related pubchem assays: 828, 866 ]; assay type: functional
Protein Wnt-3a = Protein Wnt-3a (Mus musculus, UniProt P27467); assay: antagonism of Wnt3a pathway luciferase reporter – Wnt-LIGHT cells, luminescence, selectivity assay for Gli-SUFU antagonist project, dose response (AID 651570); assay type: functional; conditions: read-out: IC50_Mean;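 note: Wnt-LIGHT reporter cells stimulated with conditioned medium from Wnt3a-producing cells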
Sequence of Protein Wnt-3a (P27467 whole entry): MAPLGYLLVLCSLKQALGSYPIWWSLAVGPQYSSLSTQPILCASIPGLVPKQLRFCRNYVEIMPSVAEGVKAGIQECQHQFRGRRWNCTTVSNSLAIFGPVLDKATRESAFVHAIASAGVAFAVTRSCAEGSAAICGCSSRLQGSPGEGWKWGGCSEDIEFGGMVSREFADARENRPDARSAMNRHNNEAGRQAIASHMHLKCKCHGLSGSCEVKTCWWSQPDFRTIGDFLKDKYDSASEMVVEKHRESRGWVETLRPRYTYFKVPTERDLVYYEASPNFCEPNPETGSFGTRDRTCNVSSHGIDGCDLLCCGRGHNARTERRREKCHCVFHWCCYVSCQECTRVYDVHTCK

[12] = molecular target: T3, Serine/threonine-protein phosphatase (Candida dubliniensis (strain CD36 / CBS 7987 / NCPF 3949 / NRRLY-17841) (Yeast), UniProt B9W6M3); assay: blockers of CaCl2-induced CDRE-lacZ signaling – S. cerevisiae, luminescence, secondary, dose response (AID 2388); assay type: functional, cell-based;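 note: yeast reporter cells carrying a calcineurin-responsive lacZ construct stimulated with calcium chloride; luminescent beta-galactosidase reporter signal in whole cells rather than isolated phosphatase activity; potency for inhibition where a drop in reporter signal means calcineurin blockade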
T3 sequence (B9W6M3 whole entry): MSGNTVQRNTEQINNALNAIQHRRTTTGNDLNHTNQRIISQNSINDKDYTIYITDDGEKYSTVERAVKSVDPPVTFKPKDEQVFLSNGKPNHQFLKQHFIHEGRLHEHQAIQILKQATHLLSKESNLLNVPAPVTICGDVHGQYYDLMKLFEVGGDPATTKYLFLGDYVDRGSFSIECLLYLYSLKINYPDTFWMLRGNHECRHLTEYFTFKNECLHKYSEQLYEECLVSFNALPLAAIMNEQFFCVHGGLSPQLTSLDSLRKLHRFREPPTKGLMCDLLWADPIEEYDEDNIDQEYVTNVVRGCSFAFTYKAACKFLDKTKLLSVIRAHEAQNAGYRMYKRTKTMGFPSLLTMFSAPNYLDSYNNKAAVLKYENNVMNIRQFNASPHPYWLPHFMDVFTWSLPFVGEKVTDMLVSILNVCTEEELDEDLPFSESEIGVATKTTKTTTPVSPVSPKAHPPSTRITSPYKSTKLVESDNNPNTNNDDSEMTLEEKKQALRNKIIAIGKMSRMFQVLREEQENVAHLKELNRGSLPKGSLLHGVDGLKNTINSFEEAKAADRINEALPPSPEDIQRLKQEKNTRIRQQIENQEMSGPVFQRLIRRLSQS

[13] = molecular target: T4, Apoptotic protease-activating factor 1 (Homo sapiens, UniProt O14727); assay type: functional
T4 sequence (O14727 whole entry): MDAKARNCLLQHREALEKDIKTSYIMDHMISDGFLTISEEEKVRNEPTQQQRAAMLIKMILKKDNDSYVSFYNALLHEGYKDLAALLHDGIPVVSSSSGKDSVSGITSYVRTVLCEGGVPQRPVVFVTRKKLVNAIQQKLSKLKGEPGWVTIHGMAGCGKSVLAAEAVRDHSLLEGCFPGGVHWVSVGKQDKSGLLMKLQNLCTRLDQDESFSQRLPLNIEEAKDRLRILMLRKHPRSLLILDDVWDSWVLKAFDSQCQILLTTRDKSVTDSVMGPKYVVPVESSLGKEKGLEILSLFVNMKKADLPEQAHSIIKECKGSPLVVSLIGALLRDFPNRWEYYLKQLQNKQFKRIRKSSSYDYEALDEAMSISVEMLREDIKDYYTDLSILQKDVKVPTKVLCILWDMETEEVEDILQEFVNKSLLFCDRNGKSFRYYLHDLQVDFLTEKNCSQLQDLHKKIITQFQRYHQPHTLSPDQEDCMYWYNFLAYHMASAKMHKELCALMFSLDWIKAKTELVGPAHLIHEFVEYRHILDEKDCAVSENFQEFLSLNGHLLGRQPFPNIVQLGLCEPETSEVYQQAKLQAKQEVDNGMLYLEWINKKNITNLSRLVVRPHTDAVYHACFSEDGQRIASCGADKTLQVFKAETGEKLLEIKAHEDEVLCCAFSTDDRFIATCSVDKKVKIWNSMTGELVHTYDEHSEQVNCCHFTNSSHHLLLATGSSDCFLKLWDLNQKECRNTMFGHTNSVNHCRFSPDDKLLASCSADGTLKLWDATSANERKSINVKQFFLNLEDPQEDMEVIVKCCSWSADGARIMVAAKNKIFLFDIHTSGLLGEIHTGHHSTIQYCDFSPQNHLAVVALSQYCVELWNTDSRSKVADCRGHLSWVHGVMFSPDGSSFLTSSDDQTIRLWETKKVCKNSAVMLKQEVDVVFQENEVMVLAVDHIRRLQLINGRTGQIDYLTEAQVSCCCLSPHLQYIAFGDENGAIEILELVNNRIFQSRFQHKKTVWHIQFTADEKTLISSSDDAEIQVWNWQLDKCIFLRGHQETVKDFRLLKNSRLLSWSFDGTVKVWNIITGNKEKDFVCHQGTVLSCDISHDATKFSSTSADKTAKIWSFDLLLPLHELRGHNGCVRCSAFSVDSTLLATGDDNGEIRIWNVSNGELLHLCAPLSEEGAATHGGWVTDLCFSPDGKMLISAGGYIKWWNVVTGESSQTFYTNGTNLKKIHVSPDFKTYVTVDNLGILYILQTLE

Protein RecA = molecular target: T5, Protein RecA (Mycobacterium tuberculosis, UniProt P9WHJ3); assay: Fluorescence Cell-Free Homogeneous Dose Retest to Identify Inhibitors of RecA-Intein Splicing Activity. [Related pubchem assays (depositor defined):AID2097, AID2223, AID489010, AID492950]; assay type: functional
T5 sequence (P9WHJ3 whole entry): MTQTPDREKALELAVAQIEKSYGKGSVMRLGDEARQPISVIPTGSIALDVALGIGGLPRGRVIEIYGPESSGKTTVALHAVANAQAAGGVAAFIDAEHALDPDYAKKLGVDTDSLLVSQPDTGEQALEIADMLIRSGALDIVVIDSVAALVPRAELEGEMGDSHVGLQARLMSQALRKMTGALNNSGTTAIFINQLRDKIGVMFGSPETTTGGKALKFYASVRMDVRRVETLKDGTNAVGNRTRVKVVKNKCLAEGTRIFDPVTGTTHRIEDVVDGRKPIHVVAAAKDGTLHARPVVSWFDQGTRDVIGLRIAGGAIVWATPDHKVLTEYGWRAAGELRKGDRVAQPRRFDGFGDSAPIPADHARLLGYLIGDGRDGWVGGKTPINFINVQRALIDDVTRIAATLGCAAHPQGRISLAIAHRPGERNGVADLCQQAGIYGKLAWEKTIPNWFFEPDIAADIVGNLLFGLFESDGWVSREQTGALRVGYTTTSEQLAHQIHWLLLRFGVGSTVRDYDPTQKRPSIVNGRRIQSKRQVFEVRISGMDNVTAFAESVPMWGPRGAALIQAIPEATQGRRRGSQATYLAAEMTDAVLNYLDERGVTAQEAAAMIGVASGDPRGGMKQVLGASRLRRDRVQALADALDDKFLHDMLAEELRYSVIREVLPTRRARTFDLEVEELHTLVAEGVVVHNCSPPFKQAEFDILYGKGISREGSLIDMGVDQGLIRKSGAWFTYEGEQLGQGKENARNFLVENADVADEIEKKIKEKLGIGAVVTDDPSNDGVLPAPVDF

[14] = microbe, parasite or virus in culture; assay type: functional; conditions: Mycobacterium tuberculosis
[15] = molecular target: T6, Tyrosyl-DNA phosphodiesterase 2 (Homo sapiens, UniProt O95551); assay: potency against TDP2 phosphodiesterase activity – biochemical, epi absorbance, IC50, dose response (AID 743297)
T6 sequence (O95551 whole entry): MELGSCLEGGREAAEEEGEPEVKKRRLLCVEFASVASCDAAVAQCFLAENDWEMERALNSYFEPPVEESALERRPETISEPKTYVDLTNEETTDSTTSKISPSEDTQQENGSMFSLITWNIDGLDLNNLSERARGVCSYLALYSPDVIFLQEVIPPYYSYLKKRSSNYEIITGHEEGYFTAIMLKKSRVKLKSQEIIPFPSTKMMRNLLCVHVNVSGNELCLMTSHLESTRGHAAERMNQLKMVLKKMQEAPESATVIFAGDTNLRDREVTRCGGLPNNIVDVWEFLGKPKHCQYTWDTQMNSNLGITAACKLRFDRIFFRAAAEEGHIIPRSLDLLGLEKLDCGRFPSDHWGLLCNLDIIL

[16] = molecular target: T7, Replicative DNA helicase DnaB (Mycobacterium tuberculosis, UniProt P9WMR3); assay: DnaB intein splicing inhibitors, dose response, biochemical, cell-free fluorescence (AID 449749); assay type: functional
T7 sequence (P9WMR3 whole entry): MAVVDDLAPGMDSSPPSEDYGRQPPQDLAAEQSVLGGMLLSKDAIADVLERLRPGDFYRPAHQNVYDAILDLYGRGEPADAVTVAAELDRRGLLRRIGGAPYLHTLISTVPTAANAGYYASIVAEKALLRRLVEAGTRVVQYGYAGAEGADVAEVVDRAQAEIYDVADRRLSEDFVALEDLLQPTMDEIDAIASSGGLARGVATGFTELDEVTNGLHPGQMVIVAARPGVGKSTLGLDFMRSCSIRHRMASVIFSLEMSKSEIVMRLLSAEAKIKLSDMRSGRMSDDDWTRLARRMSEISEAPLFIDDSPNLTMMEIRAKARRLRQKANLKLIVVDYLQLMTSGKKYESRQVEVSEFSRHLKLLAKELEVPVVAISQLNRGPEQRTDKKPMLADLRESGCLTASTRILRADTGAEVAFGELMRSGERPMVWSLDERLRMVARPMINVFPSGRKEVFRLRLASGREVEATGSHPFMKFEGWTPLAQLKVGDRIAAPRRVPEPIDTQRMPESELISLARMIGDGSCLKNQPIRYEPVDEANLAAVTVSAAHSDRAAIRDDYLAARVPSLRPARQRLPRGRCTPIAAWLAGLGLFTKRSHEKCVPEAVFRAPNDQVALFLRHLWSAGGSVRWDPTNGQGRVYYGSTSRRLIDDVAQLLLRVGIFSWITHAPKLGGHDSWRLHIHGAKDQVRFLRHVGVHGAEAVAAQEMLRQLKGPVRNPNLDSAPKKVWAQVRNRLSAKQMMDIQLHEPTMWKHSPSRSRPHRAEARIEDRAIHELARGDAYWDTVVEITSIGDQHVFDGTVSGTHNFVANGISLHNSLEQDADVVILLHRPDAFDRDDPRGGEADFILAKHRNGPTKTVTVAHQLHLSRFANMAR

[17] = molecular target: Serine/threonine-protein phosphatase PP1-alpha catalytic subunit (Homo sapiens, UniProt P62136); assay: inhibition of protein phosphatase 1 activity – biochemical, fluorescence, dose response (AID 2394)
Sequence of Serine/threonine-protein phosphatase PP1-alpha catalytic subunit (P62136 whole entry): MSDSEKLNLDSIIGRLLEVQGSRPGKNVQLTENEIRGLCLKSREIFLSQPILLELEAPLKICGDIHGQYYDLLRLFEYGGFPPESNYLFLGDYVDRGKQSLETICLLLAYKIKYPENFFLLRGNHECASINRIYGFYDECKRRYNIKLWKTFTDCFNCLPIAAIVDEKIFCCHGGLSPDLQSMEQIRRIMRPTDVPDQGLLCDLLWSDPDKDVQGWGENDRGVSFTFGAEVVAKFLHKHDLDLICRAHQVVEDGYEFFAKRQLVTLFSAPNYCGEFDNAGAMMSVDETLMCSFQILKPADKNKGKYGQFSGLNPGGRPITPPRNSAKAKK

[18] = molecular target: Serine/threonine-protein phosphatase (Homo sapiens, UniProt Q9BPW0); assay: inhibition of protein phosphatase 5 activity – biochemical, fluorescence, dose response (AID 2395)

O=C1c2ccccc2-c2onc3ccc(NCCCn4ccnc4)c1c23
IC50 (Beta-lactamase [1]): 3.02 µM (active)
IC50 (Beta-lactamase [2]): 5.38 µM (active)
IC50 [3]: 22.2 µM (not active)
IC50 [4]: 3.18 µM (active)
IC50 (Bcl-2-related protein A1 [5]): > 100 µM (not active)
IC50 (Bcl-2-related protein A1 [6]): > 100 µM (not active)
IC50 [7]: > 50 µM (inactive)
IC50 [8]: 1.19 µM (active)

c1ccc2c(c1)OCC(CNc1ncnc3sccc13)O2 (configuration not stated)
EC50 [9]: > 150 µM (inactive)
EC50 [10]: > 150 µM (inactive)
AC50 (INS1): 0.941 µM (active)
EC50 [11]: 0.27 µM (active)
IC50 (Galanin receptor type 2): > 42 µM (not active)
IC50 (Protein Wnt-3a): 1.83 µM (active)
EC50 [12]: > 180 µM (inactive)

O=C(/C=C/c1ccc(O)cc1)c1ccc(/N=C2\C(=O)c3ccccc3C(O)=C2N2CCCCC2)cc1
IC50 [13]: 2.91 µM (active)
EC50 (Protein RecA): 0.707 µM (active)
CC50 [14]: 8.74 µM (active)
IC50 [15]: > 128 µM (inactive)
AC50 [16]: > 380 µM (inactive)
IC50 [17]: > 67 µM (not active)
IC50 [18]: 26.4 µM (not active)
